Key:
Type in all cases: cell-based
Moraxella catarrhalis = experiment: MIC against Gram-negative bacteria: Moraxella catarrhalis
Method in brief: (§1)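 Bacteria grown in LB at 37° C with shaking to McFarland 0.5, pelleted and resuspended in fresh LB, then seeded at 5×10^5 CFU/mL per well. Purified recombinant human EGF domain proteins were two-fold serially diluted in triplicate and plates shaken at 37° C, 175 rpm. MIC is the lowest protein concentration with no bacterial growth.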

Proteus vulgaris = experiment: MIC against Gram-negative bacteria: Proteus vulgaris
Method in brief: as §1

Citrobacter diversus = experiment: MIC against Gram-negative bacteria: Citrobacter diversus
Method in brief: as §1

Enterobacter cloacae = experiment: MIC against Gram-negative bacteria: Enterobacter cloacae
Method in brief: as §1

Pseudomonas aeruginosa = experiment: MIC against Gram-negative bacteria: Pseudomonas aeruginosa
Method in brief: as §1

Serratia marcescens = experiment: MIC against Gram-negative bacteria: Serratia marcescens
Method in brief: as §1

Klebsiella pneumonia = experiment: MIC against Gram-negative bacteria: Klebsiella pneumonia
Method in brief: as §1

Aeromonas hydrophila = experiment: MIC against Gram-negative bacteria: Aeromonas hydrophila
Method in brief: as §1

E. coli DH5α = experiment: Antibacterial activity: MIC and growth curve against E. coli DH5α in 96-well plate; conditions: minimal inhibitory concentration against E. coli DH5α; 96-well plate, 5×10^5 CFU/mL, 37° C., judged after 8 h
Method in brief: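 Log-phase DH5α (OD600 about 0.5, 37° C, 185 rpm in LB) was pelleted, resuspended in fresh LB and seeded at 5×10^5 CFU/mL with recombinant protein at 50, 25 and 12.5 μg/mL (two-fold series), in triplicate. Plates were shaken at 175 rpm, 37° C, and OD600 was read every 30 min. MIC was the lowest concentration with no growth.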

Proteus mirabilis = experiment: MIC against Gram-negative bacteria: Proteus mirabilis
Method in brief: as §1

E. coli BL21 = experiment: MIC against Gram-negative bacteria: E. coli BL21
Method in brief: as §1

[1] = 10 h cultivation at 37° C., 5×10^5 CFU/mL, two-fold serial dilution
[2] = Moraxella catarrhalis, 96-well plate, 5×10^5 CFU/mL, 37° C., 10 h
[3] = Proteus vulgaris, 96-well plate, 5×10^5 CFU/mL, 37° C., 10 h
[4] = Citrobacter diversus, 96-well plate, 5×10^5 CFU/mL, 37° C., 10 h
[5] = Enterobacter cloacae, 96-well plate, 5×10^5 CFU/mL, 37° C., 10 h
[6] = Pseudomonas aeruginosa, 96-well plate, 5×10^5 CFU/mL, 37° C., 10 h
[7] = Serratia marcescens, 96-well plate, 5×10^5 CFU/mL, 37° C., 10 h
[8] = Klebsiella pneumonia, 96-well plate, 5×10^5 CFU/mL, 37° C., 10 h
[9] = Aeromonas hydrophila, 96-well plate, 5×10^5 CFU/mL, 37° C., 10 h
[10] = Proteus mirabilis, 96-well plate, 5×10^5 CFU/mL, 37° C., 10 h
[11] = E. coli BL21, 96-well plate, 5×10^5 CFU/mL, 37° C., 10 h

**Q.** Which results are given for “PRT1080 (IQSYCAKHLKCSQKCDQNKFSVKCSCYEGWVLEPDGESCR; listed as Homo sapiens)”?
**A.** MIC M. catarrhalis (Moraxella catarrhalis; [1]): 12.5 µg/mL; MIC P. vulgaris (Proteus vulgaris; [1]): 25 µg/mL; MIC C. diversus (Citrobacter diversus; [1]): 12.5 µg/mL; MIC E. cloacae (Enterobacter cloacae; [1]): 50 µg/mL; MIC P. aeruginosa (Pseudomonas aeruginosa; [1]): 12.5 µg/mL; MIC S. marcescens (Serratia marcescens; [1]): 50 µg/mL; MIC K. pneumonia (Klebsiella pneumonia; [1]): 25 µg/mL; MIC A. hydrophila (Aeromonas hydrophila; [1]): 12.5 µg/mL; MIC (E. coli DH5α): 50 µg/mL; MIC P. mirabilis (Proteus mirabilis; [1]): 12.5 µg/mL; MIC E. coli BL21 (E. coli BL21; [1]): 25 µg/mL

**Q.** What does the source list for “PRT1473 (SFLNCSLDNGGCTHYCLEEVGWRRCSCAPGYKLGDDLLQCH; listed as Homo sapiens)”?
**A.** MIC against M. catarrhalis (Moraxella catarrhalis; Moraxella catarrhalis, 5×10^5 CFU/mL, 10 h cultivation at 37° C.): 25 µg/mL; MIC against P. vulgaris (Proteus vulgaris; Proteus vulgaris, 5×10^5 CFU/mL, 10 h cultivation at 37° C.): 25 µg/mL; MIC against C. diversus (Citrobacter diversus; Citrobacter diversus, 5×10^5 CFU/mL, 10 h cultivation at 37° C.): 12.5 µg/mL; MIC against E. cloacae (Enterobacter cloacae; Enterobacter cloacae, 5×10^5 CFU/mL, 10 h cultivation at 37° C.): 12.5 µg/mL; MIC against P. aeruginosa (Pseudomonas aeruginosa; Pseudomonas aeruginosa, 5×10^5 CFU/mL, 10 h cultivation at 37° C.): 25 µg/mL; MIC against S. marcescens (Serratia marcescens; Serratia marcescens, 5×10^5 CFU/mL, 10 h cultivation at 37° C.): 12.5 µg/mL; MIC against K. pneumonia (Klebsiella pneumonia; Klebsiella pneumonia, 5×10^5 CFU/mL, 10 h cultivation at 37° C.): 50 µg/mL; MIC against A. hydrophila (Aeromonas hydrophila; Aeromonas hydrophila, 5×10^5 CFU/mL, 10 h cultivation at 37° C.): 50 µg/mL; MIC (E. coli DH5α): 12.5 µg/mL; MIC against P. mirabilis (Proteus mirabilis; Proteus mirabilis, 5×10^5 CFU/mL, 10 h cultivation at 37° C.): 50 µg/mL; MIC against E. coli BL21 (E. coli BL21; E. coli BL21, 5×10^5 CFU/mL, 10 h cultivation at 37° C.): 25 µg/mL

**Q.** “PRT30 (PCDCYPVGSTSRSCAPHSGQCPCRPGALGRQCNSCDSPF; listed as Homo sapiens)” was tested. Which “MIC (μg/mL) M. catarrhalis” value (Moraxella catarrhalis; [2]) did it give?
**A.** 50 µg/mL

**Q.** What about the “MIC (μg/mL) P. vulgaris” value (Proteus vulgaris; [3]) of the same substance?
**A.** 25 µg/mL

**Q.** What about the “MIC (μg/mL) C. diversus” value (Citrobacter diversus; [4]) of the same substance?
**A.** 25 µg/mL

**Q.** What about the “MIC (μg/mL) E. cloacae” value (Enterobacter cloacae; [5]) of the same substance?
**A.** 50 µg/mL

**Q.** And the “MIC (μg/mL) P. aeruginosa” value (Pseudomonas aeruginosa; [6])?
**A.** 12.5 µg/mL

**Q.** And the “MIC (μg/mL) S. marcescens” value (Serratia marcescens; [7])?
**A.** 12.5 µg/mL

**Q.** And the “MIC (μg/mL) K. pneumonia” value (Klebsiella pneumonia; [8])?
**A.** 25 µg/mL

**Q.** And the “MIC (μg/mL) A. hydrophila” value (Aeromonas hydrophila; [9])?
**A.** 12.5 µg/mL

**Q.** And the MIC (E. coli DH5α)?
**A.** 25 µg/mL

**Q.** And the “MIC (μg/mL) P. mirabilis” value (Proteus mirabilis; [10])?
**A.** 12.5 µg/mL

**Q.** What about the “MIC (μg/mL) E. coli BL21” value (E. coli BL21; [11]) of the same substance?
**A.** 50 µg/mL

**Q.** Which results are given for “PRT263 (CSKNNGGCSPYATCKSTGDGQRTCTCDTAHTVGDGLTC; listed as Homo sapiens)”?
**A.** MIC (μg/mL) M. catarrhalis (Moraxella catarrhalis; M. catarrhalis, 10 h cultivation at 37° C., 5×10^5 CFU/mL): 12.5 µg/mL; MIC (μg/mL) P. vulgaris (Proteus vulgaris; P. vulgaris, 10 h cultivation at 37° C., 5×10^5 CFU/mL): 12.5 µg/mL; MIC (μg/mL) C. diversus (Citrobacter diversus; C. diversus, 10 h cultivation at 37° C., 5×10^5 CFU/mL): 12.5 µg/mL; MIC (μg/mL) E. cloacae (Enterobacter cloacae; E. cloacae, 10 h cultivation at 37° C., 5×10^5 CFU/mL): 12.5 µg/mL; MIC (μg/mL) P. aeruginosa (Pseudomonas aeruginosa; P. aeruginosa, 10 h cultivation at 37° C., 5×10^5 CFU/mL): 12.5 µg/mL; MIC (μg/mL) S. marcescens (Serratia marcescens; S. marcescens, 10 h cultivation at 37° C., 5×10^5 CFU/mL): 50 µg/mL; MIC (μg/mL) K. pneumonia (Klebsiella pneumonia; K. pneumonia, 10 h cultivation at 37° C., 5×10^5 CFU/mL): 25 µg/mL; MIC (μg/mL) A. hydrophila (Aeromonas hydrophila; A. hydrophila, 10 h cultivation at 37° C., 5×10^5 CFU/mL): 25 µg/mL; MIC (E. coli DH5α): 25 µg/mL; MIC (μg/mL) P. mirabilis (Proteus mirabilis; P. mirabilis, 10 h cultivation at 37° C., 5×10^5 CFU/mL): 12.5 µg/mL; MIC (μg/mL) E. coli BL21 (E. coli BL21; E. coli BL21, 10 h cultivation at 37° C., 5×10^5 CFU/mL): 25 µg/mL

**Q.** What does the source list for “PRT955 (DVDECLLQPNACQNGGTCANRNGGYGCVCVNGWSGDDCS; listed as Homo sapiens)”?
**A.** MIC (Moraxella catarrhalis; M. catarrhalis, 10 h cultivation at 37° C.): 12.5 µg/mL; MIC (Proteus vulgaris; P. vulgaris, 10 h cultivation at 37° C.): 25 µg/mL; MIC (Citrobacter diversus; C. diversus, 10 h cultivation at 37° C.): 25 µg/mL; MIC (Enterobacter cloacae; E. cloacae, 10 h cultivation at 37° C.): 25 µg/mL; MIC (Pseudomonas aeruginosa; P. aeruginosa, 10 h cultivation at 37° C.): 25 µg/mL; MIC (Serratia marcescens; S. marcescens, 10 h cultivation at 37° C.): 12.5 µg/mL; MIC (Klebsiella pneumonia; K. pneumonia, 10 h cultivation at 37° C.): 12.5 µg/mL; MIC (Aeromonas hydrophila; A. hydrophila, 10 h cultivation at 37° C.): 12.5 µg/mL; MIC (E. coli DH5α): 50 µg/mL; MIC (Proteus mirabilis; P. mirabilis, 10 h cultivation at 37° C.): 12.5 µg/mL; MIC (E. coli BL21; E. coli BL21, 10 h cultivation at 37° C.): 12.5 µg/mL

**Q.** “PRT10 (NCSAQCHNHGVCNHKQECHCHAGWAPPHCA; listed as Homo sapiens)” was tested. Which “MIC (μg/mL) M. catarrhalis” value (Moraxella catarrhalis; [2]) did it give?
**A.** 12.5 µg/mL

**Q.** And the “MIC (μg/mL) P. vulgaris” value (Proteus vulgaris; [3])?
**A.** 25 µg/mL

**Q.** And the “MIC (μg/mL) C. diversus” value (Citrobacter diversus; [4])?
**A.** 25 µg/mL

**Q.** What about the “MIC (μg/mL) E. cloacae” value (Enterobacter cloacae; [5]) of the same substance?
**A.** 12.5 µg/mL

**Q.** What about the “MIC (μg/mL) P. aeruginosa” value (Pseudomonas aeruginosa; [6]) of the same substance?
**A.** 12.5 µg/mL

**Q.** What about the “MIC (μg/mL) S. marcescens” value (Serratia marcescens; [7]) of the same substance?
**A.** 12.5 µg/mL

**Q.** What about the “MIC (μg/mL) K. pneumonia” value (Klebsiella pneumonia; [8]) of the same substance?
**A.** 50 µg/mL

**Q.** And the “MIC (μg/mL) A. hydrophila” value (Aeromonas hydrophila; [9])?
**A.** 50 µg/mL

**Q.** And the MIC (E. coli DH5α)?
**A.** 25 µg/mL

**Q.** What about the “MIC (μg/mL) P. mirabilis” value (Proteus mirabilis; [10]) of the same substance?
**A.** 12.5 µg/mL

**Q.** What about the “MIC (μg/mL) E. coli BL21” value (E. coli BL21; [11]) of the same substance?
**A.** 50 µg/mL
